Assay results from patent US7399744B2, “Methods for affecting body composition” (Amylin Pharmaceuticals, Inc., priority 2004, dated 2008).
Bridge positions count the residues as written; N and C are the ends. Peptide text beside a SMILES is read from it.

What was measured:
amylin receptors = target: T1, amylin receptors (Rattus norvegicus, UniProt P32214+Q9JJ74); assay: Receptor binding assay (competition with 125I Bolton Hunter rat amylin, basal forebrain membranes)
T1 construct: This basal forebrain tissue, containing the nucleus accumbens and surrounding regions, was weighed and homogenized; from tissue; host or cells: rat basal forebrain (nucleus accumbens and surrounding regions) membranes
T1 sequence (P32214 25-516): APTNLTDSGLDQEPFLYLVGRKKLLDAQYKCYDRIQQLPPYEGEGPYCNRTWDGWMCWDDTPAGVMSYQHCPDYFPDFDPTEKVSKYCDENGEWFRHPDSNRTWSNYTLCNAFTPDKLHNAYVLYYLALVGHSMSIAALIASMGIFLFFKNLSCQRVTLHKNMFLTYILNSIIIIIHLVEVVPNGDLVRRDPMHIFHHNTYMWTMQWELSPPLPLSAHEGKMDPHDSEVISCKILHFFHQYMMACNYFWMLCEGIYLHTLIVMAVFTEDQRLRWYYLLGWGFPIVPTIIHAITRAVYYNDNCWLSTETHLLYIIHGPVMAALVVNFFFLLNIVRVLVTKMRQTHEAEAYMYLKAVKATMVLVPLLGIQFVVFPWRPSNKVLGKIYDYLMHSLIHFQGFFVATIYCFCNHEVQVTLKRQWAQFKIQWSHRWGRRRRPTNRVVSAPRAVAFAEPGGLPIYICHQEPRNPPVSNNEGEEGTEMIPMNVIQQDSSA
T1 sequence (Q9JJ74 27-148): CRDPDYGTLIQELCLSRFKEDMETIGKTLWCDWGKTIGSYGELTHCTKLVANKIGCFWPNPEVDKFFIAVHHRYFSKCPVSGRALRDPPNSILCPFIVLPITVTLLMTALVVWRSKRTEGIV
From the text: A preferred source of the membrane preparations used in the assay is the basal forebrain which comprises membranes from the nucleus accumbens and surrounding regions.
Unlabeled peptides were obtained from BACHEM Inc. (Torrance, Calif.) and Peninsula Laboratories (Belmont, Calif.).
Male Sprague-Dawley rats (200-250) grams were sacrificed by decapitation. Brains were removed to cold phosphate-buffered saline (PBS). From the ventral surface, cuts were made rostral to the hypothalamus, bounded laterally by the olfactory tracts and extending at a 45° angle medially from these tracts. This basal forebrain tissue, containing the nucleus accumbens and surrounding regions, was weighed and homogenized in ice-cold 20 mM HEPES buffer (20 mM HEPES acid, pH adjusted to 7.4 with NaOH at 23° C.). […] The final membrane pellet was resuspended in 20 mM HEPES buffer containing 0.2 mM phenylmethylsulfonyl fluoride (PMSF).
Solutions were incubated for 60 minutes at 23° C. […] Filters were washed immediately before filtration with 5 ml cold PBS, and immediately after filtration with 15 ml cold PBS.

[1] = system: insulin-stimulated glycogen synthesis in soleus muscle; assay: Soleus muscle assay; type: cell-based; conditions: rat soleus muscle, inhibition of glucose incorporation into glycogen
Protocol: Concentrations of peptide dissolved in carrier-free buffers are determined by quantitative amino acid analysis, as described therein. The ability of compounds to act as agonists in this assay is determined by measuring EC50 values. […] Similar results were obtained with other agonist compounds listed above.

SMILES: CC[C@H](C)[C@H](NC(=O)[C@H](C)NC(=O)CNC(=O)[C@H](Cc1ccccc1)NC(=O)[C@H](CC(N)=O)NC(=O)[C@H](CC(N)=O)NC(=O)[C@H](CO)NC(=O)[C@H](CO)NC(=O)[C@H](Cc1c[nH]cn1)NC(=O)[C@@H](NC(=O)[C@H](CC(C)C)NC(=O)[C@H](Cc1ccccc1)NC(=O)[C@H](CC(N)=O)NC(=O)[C@H](C)NC(=O)[C@H](CC(C)C)NC(=O)[C@H](CCCNC(=N)N)NC(=O)[C@H](CCC(N)=O)NC(=O)[C@@H](NC(=O)[C@H](C)NC(=O)[C@@H]1CCCCNC(=O)C[C@H](NC(=O)[C@@H](N)CCCCN)C(=O)N[C@@H](CC(N)=O)C(=O)N[C@@H]([C@@H](C)O)C(=O)N[C@@H](C)C(=O)N[C@@H]([C@@H](C)O)C(=O)N1)[C@@H](C)O)C(C)C)C(=O)N[C@@H](CC(C)C)C(=O)N[C@@H](CO)C(=O)N[C@@H](CO)C(=O)N[C@H](C(=O)N[C@@H](CC(N)=O)C(=O)N[C@H](C(=O)NCC(=O)N[C@@H](CO)C(=O)N[C@@H](CC(N)=O)C(=O)N[C@H](C(=O)N[C@@H](Cc1ccc(O)cc1)C(N)=O)[C@@H](C)O)C(C)C)[C@@H](C)O [^2,7Cyclo-[^2Asp,^7Lys]-h-Amylin] (H-KDNTATKATQRLANFLVHSSNNFGAILSSTNVGSNTY-NH2; lactam 2-7; N-terminus and C-terminus assumed)
- IC50 (amylin receptors): 0.31 nM
- EC50 [1]: 6.62 nM
